# Assay results as given in patent publication US20120230991A1, “METHODS AND COMPOUNDS FOR ENHANCING ANTI-CANCER THERAPY” (priority 2008, published 2012).
# Tests used:
# [1] = system: 697 Human B-ALL Cell Lines; test: MTT assay, chemosensitivity of 697 cells (wild type, shControl, Mer knockdown), 48 hours; format: cell-based
# Description: Inhibition of Mer expression results in increased chemosensitivity in 697 cells. […] IC50 values were determined by non-linear regression of data from at least three independent experiments performed in triplicate, as shown in Table 1.
# [2] = system: G12 astrocytoma cells; test: MTT assay, chemosensitivity of G12 astrocytoma control and knockdown cells; format: cell-based
# Description: (§1) G12 control (shControl) and knockdown cells (shMer1 and shMer4; shAxl8 and shAxl9) were plated in 96-well plates at concentrations determined to allow linear growth over 3 days: A) cells were treated with varying concentrations of temozolomide and relative cell number was assessed 48 h after treatment by colorimetric assessment/MTT assay. Error bars denote experiments performed in triplicate. A172 control (shControl) and knockdown cells (shMer1A and shMer1B; shAxl8 and shAxl9) were plated in 96-well plates at concentrations determined to allow linear growth over 3 days: B) cells were treated with varying concentrations of carboplatin and relative cell number was assessed 48 h after treatment by colorimetric assessment/MTT assay. Error bars represent three independent experiments performed in triplicate.
# (§2) Table 4 provides the IC50 with 95% CI for G12 and A172 control and Mer and Axl knockdown cells, in response to chemotherapy. In Table 4, ‘NR’ indicates an IC50 was never reached. ‘IND’ represents that that CI was indeterminate. The IC50 for each knockdown line was compared to the control line, and an ‘*’ represents that the comparison is statistically different while an ‘NS’ represents that there was no statistically significant difference because either the CI was indeterminate (as with the G12 shAxl9 line treated with carboplatin) or it overlapped with the shControl CI.
# [3] = system: A172 glioblastoma cells; test: MTT assay, chemosensitivity of A172 control and knockdown cells; format: cell-based; settings: Homo sapiens
# Description: as §1, §2
# [4] = system: A549 Human NSCLC Cell Lines; test: Relative cell numbers of A549 cells (wild type, shControl, Axl/Mer knockdown) after 48 hours of drug; format: cell-based; settings: for sensitivity of the shAxl9-D3 Axl knockdown clone: A549 shAxl9-D3, 48 hours; for IC50: Homo sapiens, A549, 48 h, 48 hours, relative cell number
# [5] = system: A549 Human NSCLC Cell Lines; test: BrdU incorporation ELISA, relative cell proliferation of A549 cells, 48 hours; format: cell-based; settings: for sensitivity of A549 cells with inhibition of Mer expression: A549 Mer1-G8 knockdown, BrdU; for IC50: Homo sapiens, A549, 48 h, BrdU assay
# Description: The relative cell proliferation was determined via a BrdU incorporation ELISA. IC50 values were determined by non-linear regression of data from at least three independent experiments performed in triplicate (see Table 3).
# [6] = system: 697 cells; test: Flow cytometry of apoptotic and dead cells (YO-PRO-1 / propidium iodide), 697 cells; format: cell-based, human; settings: 697 shMer1A vs shControl, 48 hours
# Description: Apoptotic and dead cells were identified by flow cytometric analysis of cells stained with YO-PRO®-1 and propidium iodide: A) representative flow cytometry profiles; B) mean values and standard errors derived from 3 independent experiments.
# Cultures of shControl or shMer1A 697 cells were exposed to 6-MP, VP-16, or medium only for 48 hours: A) Apoptotic and dead cells were identified by flow cytometric analysis of cells stained with YO-PRO®-1 and propidium iodide: Representative flow cytometry profiles; B) the percentages of apoptotic and dead cells are indicated in lower-right and upper-right quadrants, respectively. Mean values and standard errors derived from 3 independent experiments. Results were tested for significance using two-way ANOVA and Bonferroni posttests to compare shControl and shMer1A cells at equivalent drug concentrations.
# [7] = system: A549 cells; test: Induction of apoptosis / cell death in A549 knockdown cells treated with doxorubicin; format: cell-based, human
# [8] = 697 shMer1A (Mer knockdown) cells
# [9] = 697 shMer1B (Mer knockdown) cells
SMILES,IC50 ([1]; 697 Wild Type cells) [nM],IC50 ([1]; 697 shControl cells) [nM],"IC50 [1, 8] [nM]","IC50 [1, 9] [nM]",sensitivity of the shAxl9-D3 Axl knockdown clone [4],IC50 ([4]; A549 Wild Type) [nM],IC50 ([4]; A549 shAxl8-G5 (Axl knockdown)) [nM],IC50 ([4]; A549 shAxl9-D3 (Axl knockdown)) [nM],IC50 ([4]; A549 shControl) [nM],IC50 ([4]; A549 shMer1-G8 (Mer knockdown)) [nM],sensitivity of A549 cells with inhibition of Mer expression ([5]; 48 hours),"IC50 ([5]; A549 Wild Type, 48 hours) [nM]","IC50 ([5]; A549 shAxl8-G5, 48 hours) [nM]","IC50 ([5]; A549 shAxl9-D3, 48 hours) [nM]","IC50 ([5]; A549 shControl, 48 hours) [nM]","IC50 ([5]; A549 shMer1-G8, 48 hours) [nM]",other results
"CC[C@]1(O)C[C@H]2CN(CCc3c([nH]c4ccccc34)[C@@](C(=O)OC)(c3cc4c(cc3OC)N(C=O)[C@H]3[C@@](O)(C(=O)OC)[C@H](OC(C)=O)[C@]5(CC)C=CCN6CC[C@]43[C@@H]65)C2)C1 [VCR, vincristine]",1.04,1.02,0.54,0.46,,,,,,,,,,,,,"IC50 ([2]; G12 shAxl8, MTT): 0.31 nM; IC50 ([2]; G12 shAxl9, MTT): 0.2 nM; IC50 ([2]; G12 shControl, MTT): 1.64 nM; IC50 ([2]; G12 shMer1, MTT): 0.74 nM; IC50 ([2]; G12 shMer4, MTT): 0.22 nM; IC50 ([3]; A 172, A172 shAxl8, MTT): 0.68 nM; IC50 ([3]; A 172, A172 shAxl9, MTT): 2.92 nM; IC50 ([3]; A 172, A172 shControl, MTT): 2.54 nM; IC50 ([3]; A 172, A172 shMer1A, MTT): 1.25 nM; IC50 ([3]; A 172, A172 shMer1B, MTT): 0.54 nM"
"Cn1nnc2c(C(N)=O)ncn2c1=O [Temozolomide, temozolomide]",,,,,,,,,,,,,,,,,"IC50 ([2]; 48 h, G12 shAxl8, 48 h, MTT): 6900 nM; IC50 ([2]; 48 h, G12 shAxl9, 48 h, MTT): 1800 nM; IC50 ([2]; 48 h, G12 shControl, MTT): 68600 nM; IC50 ([2]; 48 h, G12 shMer1, 48 h, MTT): 18200 nM; IC50 ([2]; 48 h, G12 shMer4, 48 h, MTT): 1000 nM; IC50 ([3]; A 172, 48 h, A172 shAxl8, 48 h, MTT): 27600 nM; IC50 ([3]; A 172, 48 h, A172 shAxl9, 48 h, MTT): 38900 nM; IC50 ([3]; A 172, 48 h, A172 shControl, 48 h, MTT): 51400 nM; IC50 ([3]; A 172, 48 h, A172 shMer1A, 48 h, MTT): 21300 nM; IC50 ([3]; A 172, 48 h, A172 shMer1B, 48 h, MTT): 7700 nM"
"COc1cc([C@@H]2c3cc4c(cc3[C@@H](O[C@@H]3O[C@@H]5CO[C@@H](C)O[C@H]5[C@H](O)[C@H]3O)[C@H]3COC(=O)[C@H]23)OCO4)cc(OC)c1O [VP-16, etoposide]",181,173,54,60.3,more sensitive,2200,330,1010,3320,3840,increased sensitivity,720,1400,590,910,370,induction of apoptotic cell death with Mer knockdown [6]: increased induction of apoptotic cell death
"COc1cccc2c1C(=O)c1c(O)c3c(c(O)c1C2=O)C[C@@](O)(C(=O)CO)C[C@@H]3O[C@H]1C[C@H](N)[C@H](O)[C@H](C)O1 [DOXO, doxorubicin]",16.7,11.1,2.83,3.26,more sensitive,34.9,2.1,13,69.2,71.2,increased sensitivity,43.1,50,33.2,51.1,20.4,"induction of apoptosis with inhibition of Axl ([7]; A549 Axl knockdown vs shControl): increased induction of apoptosis; level of cell death in Mer knockdown cells ([7]; A549 Mer knockdown cells, treated vs untreated): did not increase the level of cell death"
